# Laboratory results reported in article PMC6522510 (Nature Communications, 2019).
# What was measured:
# Parameters in all cases: species or system AML cell lines (8); Primary HTS, single concentration about 10 uM, Cell Titer Glo viability; log10 luminescence, per cent inhibition relative to cycloheximide control
# Settings in all cases: 72 h, relative to cycloheximide control, log10 luminescence; inhibitor
# CHRF288-11 = tested on: CHRF288-11
# CMK = tested on: CMK
# CMS = tested on: CMS
# M07e = tested on: M07e
# ML-2 = tested on: ML-2
# MOLM-13 = tested on: MOLM-13
# MV4-11 = tested on: MV4-11
# U937 = tested on: U937
Structure (SMILES),CHRF288-11 %inh (CHRF288-11) [%],CMK %inh (CMK) [%],CMS %inh (CMS) [%],M07e %inh (M07e) [%],ML-2 %inh (ML-2) [%],MOLM-13 %inh (MOLM-13) [%],MV4-11 %inh (MV4-11) [%],U937 %inh (U937) [%]
COc1cc[nH]c1/C=C1\C(=O)Nc2ccc(F)c(I)c21 [SJ000581115-1],-1.945,-0.2359,4.321,4.603,0.5185,8.55,2.865,3.766
CC(C)(O)Cn1c(=O)c(Oc2ccc(F)cc2F)cc2cnc(NC3CCOCC3)nc21 [SJ000581116-1],-0.4946,6.636,-1.939,10.58,0.2616,1.601,2.584,1.398
Cn1c(-c2ccncc2)c(-c2ccc(F)cc2)c2ncccc21 [SJ000581117-1],26.1,3.59,0.8281,6.194,-0.3566,0.427,3.37,0.6927
CS(=O)(=O)CCc1cccc(C(=O)c2cnn(-c3ccc(F)cc3)c2N)c1 [SJ000581118-1],-6.13,3.205,3.108,5.628,0.2726,3.918,2.402,3.157
Cn1cc(C2=C(c3ccccc3[N+](=O)[O-])C(=O)NC2=O)c2ccccc21 [SJ000581119-1],24.65,89.69,101.9,28.37,6.35,15.35,44.46,6.728
CCOc1ccccc1CCN=C1NC(=O)/C(=C/c2ccc3ncccc3c2)S1 [SJ000581120-1],-1.679,13.66,5.975,13.3,18.56,1.703,0.5335,6.277
Cn1c(=O)c(Oc2ccc(F)cc2F)cc2cnc(N[C@H]3CCOC3)nc21 [SJ000581121-1],-0.8909,3.547,4.412,5.749,0.08921,1.492,2.632,1.362
Nc1c(C(=O)c2ccccc2)cnn1-c1ccc(F)cc1 [SJ000581122-1],-5.198,1.79,-0.3703,10.33,1.652,2.618,-1.368,-0.682
N#Cc1cccc(C(=O)c2cnn(-c3ccc(F)cc3)c2N)c1 [SJ000581124-1],-6.686,1.804,0.5963,5.547,1.377,0.9707,-1.446,2.317
Cn1cc(C2=C(c3cn(CCN)c4ccccc34)C(=O)NC2=O)c2ccccc21 [SJ000581125-1],-0.3568,4.026,4.695,2.044,0.3075,2.432,10.77,-0.6181
CC(=O)N[C@@H](Cc1ccc(OP(=O)(O)O)cc1)C(=O)N[C@H]1CCC(=O)N2CCC[C@@H](C(=O)NCc3cccc4ccccc34)N2C1=O [SJ000581126-1],5.32,0.6517,3.071,3.709,-1.495,1.087,0.5498,1.351
O=C1NC(=NCCCc2ccccc2)S/C1=C\c1ccc2ncccc2c1 [SJ000581127-1],-2.357,8.234,4.391,6.993,2.496,42.49,18.37,2.066
COc1cc[nH]c1/C=C1\C(=O)Nc2ccc([N+](=O)[O-])c(N3CC[C@@H](O)C3)c21 [SJ000581128-1],53.94,98.31,95.24,106,60.5,123.9,84.07,87.66
O=C1NC(=NCCc2cccc(F)c2)S/C1=C\c1ccc2ncccc2c1 [SJ000581129-1],23.25,94.55,28.27,27.94,47.36,21.32,43.95,84.57
OCCn1c(-c2ccncc2)c(-c2ccc(F)cc2)c2ncccc21 [SJ000581130-1],7.224,5.975,3.754,6.21,-0.1929,0.6818,4.176,1.305
N#Cc1c(C(=O)c2ccccc2)cnn1-c1ccccc1 [SJ000581131-1],0.7045,-0.4032,1.498,8.327,0.5024,1.329,2.305,-0.2486
Nc1c(C(=O)c2ccc(-c3cccnc3)cc2)cnn1-c1ccc(F)cc1 [SJ000581132-1],1.549,-0.6442,7.229,5.04,-1.014,0.5666,2.713,-1.133
CN1C[C@@H]2Cn3c(c(C4=C(c5cn(C)c6ccccc56)C(=O)NC4=O)c4ccccc43)C[C@H]2C1 [SJ000581133-2],9.973,11.96,-1.372,4.251,1.581,14.65,12.86,4.609
O=C1NC(=NCc2ccccc2Cl)S/C1=C\c1ccc2ncccc2c1 [SJ000581134-1],-1.242,-0.8248,2.499,4.671,1.267,0.6384,3.2,2.507
O=C1NC(=N[C@@H]2C[C@H]2c2ccccc2)S/C1=C\c1ccc2ncccc2c1 [SJ000581135-1],1.296,-0.2461,-0.3906,3.343,0.9867,1.012,2.985,9.436
Cn1cc(C2=C(c3cccc4ccccc34)C(=O)NC2=O)c2ccccc21 [SJ000581136-1],6.432,2.941,3.922,1.122,-1.062,-0.09214,3.742,2.302
Cn1cc(C2=C(c3cccc([N+](=O)[O-])c3)C(=O)NC2=O)c2ccccc21 [SJ000581137-1],36.65,90.94,50.99,11.35,13.53,11.77,20.06,-0.4034
Cn1c(=O)c(Oc2ccc(F)cc2F)cc2cnc(NCC(C)(C)O)nc21 [SJ000581138-1],7.837,2.21,0.7178,5.81,-0.3186,1.398,3.026,1.09
CC(=O)N[C@@H](Cc1ccc(OP(=O)(O)O)cc1)C(=O)N[C@H]1CCC(=O)N2CCC[C@@H](C(=O)NCc3ccc(O)cc3)N2C1=O [SJ000581139-1],-2.024,0.1299,2.649,2.301,-0.8925,2.506,1.337,-0.05209
